# Reference: ChEMBL document CHEMBL1201862, “PubChem BioAssay data set” (2004)
# Structures can show the parent of a compound that is named as a salt.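 All cell lines were grown in 96-well plates and treated with compound for 48 hours. GI50 marks 50% less growth.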 Activity calls are given as the source filed them. Cut-off read from the data, not from the text of the source: active = GI50 up to about 1.1 µM and inactive = higher.
# Legend:
# Assay in all cases: inhibition of tumour cell growth, NCI panel, 48 h
# HCT-116 = test system: HCT-116
# LOX IMVI = test system: LOX IMVI
# NCI-H460 = test system: NCI-H460
# Malme-3M = test system: Malme-3M
# TK-10 = test system: TK-10
# NCI-H226 = test system: NCI-H226
# MDA-MB-435 = test system: MDA-MB-435
# IGROV-1 = test system: IGROV-1
# SF-268 = test system: SF-268
# 786-0 = test system: 786-0
# KM12 = test system: KM12
# UO-31 = test system: UO-31
# RXF 393 = test system: RXF 393
# UACC-62 = test system: UACC-62
# OVCAR-5 = test system: OVCAR-5
# RPMI-8226 = test system: RPMI-8226
# DU-145 = test system: DU-145
# HCT-15 = test system: HCT-15
# HOP-62 = test system: HOP-62
# T47D = test system: T47D
Compound,GI50 (HCT-116),GI50 (LOX IMVI),GI50 (NCI-H460),GI50 (Malme-3M),GI50 (TK-10),GI50 (NCI-H226),GI50 (MDA-MB-435),GI50 (IGROV-1),GI50 (SF-268),GI50 (786-0),GI50 (KM12),GI50 (UO-31),GI50 (RXF 393),GI50 (UACC-62),GI50 (OVCAR-5),GI50 (RPMI-8226),GI50 (DU-145),GI50 (HCT-15),GI50 (HOP-62),GI50 (T47D)
COc1ccc(-c2c(C#N)c(N)nc(S)c2C#N)cc1,29.4 µM (inactive),43.5 µM (inactive),31 µM (inactive),29.9 µM (inactive),71.3 µM (inactive),21.1 µM (inactive),17.3 µM (inactive),24.7 µM (inactive),30.7 µM (inactive),21.1 µM (inactive),41.8 µM (inactive),34.9 µM (inactive),33.2 µM (inactive),41.5 µM (inactive),> 100 µM (inactive),21.5 µM (inactive),34.8 µM (inactive),33.3 µM,55.1 µM (inactive),
CN(CCNCc1cn(C)c2c1ccc1ccccc12)CCNCc1cn(C)c2c1ccc1ccccc12,1.45 µM (inactive),1.52 µM (inactive),0.583 µM (active),1.87 µM (inactive),1.64 µM (inactive),,1.78 µM (inactive),1.6 µM (inactive),1.58 µM (inactive),0.881 µM (active),1.51 µM (inactive),1.39 µM (inactive),0.499 µM (active),1.67 µM (inactive),1.74 µM (inactive),2.84 µM (inactive),1.64 µM (inactive),1.46 µM,1.79 µM (inactive),1.86 µM (inactive)
O=Cc1cc(C(=O)OCc2ccccc2)n(S(=O)(=O)c2ccccc2)c1,7.5 µM (inactive),10.3 µM (inactive),23.7 µM (inactive),30.5 µM (inactive),24 µM (inactive),,2.29 µM (inactive),25.9 µM (inactive),21.1 µM (inactive),30.7 µM (inactive),13.4 µM (inactive),12.6 µM (inactive),33.7 µM (inactive),11 µM (inactive),18.6 µM (inactive),,37 µM (inactive),11.1 µM,13.2 µM (inactive),30.5 µM (inactive)
C1CSCCSS[C@@H]2CCCCC2SC1 (stereo partly specified),81.8 µM (inactive),> 100 µM (inactive),> 100 µM (inactive),,> 100 µM (inactive),,> 100 µM (inactive),> 100 µM (inactive),> 100 µM (inactive),> 100 µM (inactive),> 100 µM (inactive),78.9 µM (inactive),,> 100 µM (inactive),> 100 µM (inactive),,> 100 µM (inactive),> 100 µM,> 100 µM (inactive),> 100 µM (inactive)
O=C(NCc1ccc(Cl)cc1)c1cc2sccc2nc1C(F)(F)F,33.3 µM (inactive),,,42.3 µM (inactive),33.7 µM (inactive),19.6 µM (inactive),> 100 µM (inactive),29.6 µM (inactive),24.2 µM (inactive),18.2 µM (inactive),87.1 µM (inactive),30.5 µM (inactive),24 µM (inactive),35.2 µM (inactive),> 100 µM (inactive),> 100 µM (inactive),,,22.3 µM (inactive),> 100 µM (inactive)
COc1ccc(OC)c(NC(=O)C(=O)Nn2c(S)nc3ccccc3c2=O)c1,> 100 µM (inactive),> 100 µM (inactive),> 100 µM (inactive),> 100 µM (inactive),> 100 µM (inactive),> 100 µM (inactive),> 100 µM (inactive),88.1 µM (inactive),> 100 µM (inactive),> 100 µM (inactive),> 100 µM (inactive),> 100 µM (inactive),> 100 µM (inactive),> 100 µM (inactive),> 100 µM (inactive),> 100 µM (inactive),,> 100 µM,> 100 µM (inactive),> 100 µM (inactive)
CC1(C)c2ccccc2C(=O)C12CCC(=O)CC2,> 100 µM (inactive),> 100 µM (inactive),> 100 µM (inactive),60.5 µM (inactive),> 100 µM (inactive),> 100 µM (inactive),,> 100 µM (inactive),> 100 µM (inactive),> 100 µM (inactive),> 100 µM (inactive),33.7 µM (inactive),12.4 µM (inactive),> 100 µM (inactive),> 100 µM (inactive),,> 100 µM (inactive),> 100 µM,> 100 µM (inactive),> 100 µM (inactive)
CCOC(=O)c1nc2ccc(C(F)(F)F)cc2nc1NCc1ccc(OC)cc1,53.1 µM (inactive),48.6 µM (inactive),28 µM (inactive),34.4 µM (inactive),71.6 µM (inactive),> 100 µM (inactive),> 100 µM (inactive),> 100 µM (inactive),> 100 µM (inactive),> 100 µM (inactive),36 µM (inactive),> 100 µM (inactive),> 100 µM (inactive),> 100 µM (inactive),> 100 µM (inactive),69.8 µM (inactive),,82.8 µM,98.9 µM (inactive),80.7 µM (inactive)
CN(C)c1ccc([S+]([O-])Nc2ccccc2)cc1 (stereo unspecified),26.6 µM (inactive),38.9 µM (inactive),27.5 µM (inactive),49.8 µM (inactive),> 100 µM (inactive),38.4 µM (inactive),21.1 µM (inactive),30 µM (inactive),45.6 µM (inactive),35.4 µM (inactive),17.1 µM (inactive),11.1 µM (inactive),,22.5 µM (inactive),> 100 µM (inactive),27.5 µM (inactive),> 100 µM (inactive),11.6 µM,56 µM (inactive),19.1 µM (inactive)
COc1ccc(P2(=S)OCCOP(=S)(c3ccc(OC)cc3)S2)cc1 (stereo unspecified),3.28 µM (inactive),2.84 µM (inactive),2.65 µM (inactive),13.7 µM (inactive),16.3 µM (inactive),5.16 µM (inactive),1.39 µM (inactive),4.03 µM (inactive),3.99 µM (inactive),4.79 µM (inactive),2.87 µM (inactive),0.638 µM (active),,4.16 µM (inactive),> 100 µM (inactive),,3.74 µM (inactive),2.29 µM,3.58 µM (inactive),41.8 µM (inactive)
CCN(CC)CCNC(=O)c1cc2cc(NC(=O)c3cc4cc(N)ccc4[nH]3)ccc2[nH]1,16 µM (inactive),,34.6 µM (inactive),,> 100 µM (inactive),,17.7 µM (inactive),,31.4 µM (inactive),35.8 µM (inactive),14.7 µM (inactive),> 100 µM (inactive),20.3 µM (inactive),23.4 µM (inactive),> 100 µM (inactive),19.3 µM (inactive),19.6 µM (inactive),> 100 µM,55 µM (inactive),20.3 µM (inactive)
Cn1c(=O)c2c(nc3n2CCC(=O)N3CCCCl)n(C)c1=O,> 100 µM (inactive),> 100 µM (inactive),> 100 µM (inactive),,> 100 µM (inactive),> 100 µM (inactive),> 100 µM (inactive),> 100 µM (inactive),> 100 µM (inactive),> 100 µM (inactive),> 100 µM (inactive),> 100 µM (inactive),,> 100 µM (inactive),> 100 µM (inactive),> 100 µM (inactive),> 100 µM (inactive),> 100 µM,> 100 µM (inactive),> 100 µM (inactive)
COc1cc(OCc2ccc3nc(-c4ccccc4)c(Cl)nc3c2)cc(OC)c1OC,76.6 µM (inactive),> 100 µM (inactive),90.2 µM (inactive),26.3 µM (inactive),19.4 µM (inactive),,> 100 µM (inactive),69.2 µM (inactive),> 100 µM (inactive),29.4 µM (inactive),> 100 µM (inactive),> 100 µM (inactive),,83.2 µM (inactive),77.1 µM (inactive),> 100 µM (inactive),> 100 µM (inactive),> 100 µM,33.3 µM (inactive),93.8 µM (inactive)
C=C[C@@]1(C)CC[C@@H]2[C@@]3(C1)O[C@H]3CC1[C@](C)(C(=O)OC)CCC[C@@]12C (stereo partly specified),13.7 µM (inactive),,16.4 µM (inactive),17.7 µM (inactive),19.1 µM (inactive),,34 µM (inactive),25.6 µM (inactive),20.2 µM (inactive),20.3 µM (inactive),35.6 µM (inactive),17.9 µM (inactive),16.1 µM (inactive),27 µM (inactive),16.9 µM (inactive),27 µM (inactive),30.4 µM (inactive),19.5 µM,20 µM (inactive),20.7 µM (inactive)
Cc1cc2nc(N3C(=O)/C(=C/c4ccc(N(C)C)cc4)N=C3c3ccccc3)sc2cc1C,17 µM (inactive),30.1 µM (inactive),23 µM (inactive),,58.9 µM (inactive),,7.46 µM (inactive),16.3 µM (inactive),40 µM (inactive),20.5 µM (inactive),26 µM (inactive),24.2 µM (inactive),18.5 µM (inactive),20.3 µM (inactive),22.9 µM (inactive),23.8 µM (inactive),50.4 µM (inactive),32.5 µM,> 100 µM (inactive),31.4 µM (inactive)
CN(C)CCOC(c1ccccc1)c1ccccc1 [DIPHENHYDRAMINE HYDROCHLORIDE],> 100 µM (inactive),> 100 µM (inactive),> 100 µM (inactive),> 100 µM (inactive),> 100 µM (inactive),> 100 µM (inactive),> 100 µM (inactive),> 100 µM (inactive),,> 100 µM (inactive),> 100 µM (inactive),> 100 µM (inactive),,,> 100 µM (inactive),84.3 µM (inactive),> 100 µM (inactive),> 100 µM,> 100 µM (inactive),> 100 µM (inactive)
